# Test results taken from patent US20240058390A1, “WNT+ ADIPOCYTES, EXOSOMES FROM WNT+ ADIPOCYTES, AND METHODS OF MAKING AND USING THEM” (The Administrators of the Tulane Educational Fund, priority 2020, published 2024).
# Entries after “also recorded” stand apart in the source; their conditions may differ.
# B1: DKK1: canonical Wnt receptor antagonist (R&D Systems 5897-DK-010) (protein, UniProt O94907 32-266, looked up)
# Dickkopf-related protein 1: TLNSVLNSNAIKNLPPPLGGAAGHPGSAVSAAPGILYPGGNKYQTIDNYQPYPCAEDEECGTDEYCASPTRGGDAGVQICLACRKRRKRCMRHAMCCPGNYCKNGICVSSDQNHFRGEIEETITESFGNDHSTLDGYSRRTTLSSKMYHTKGQEGSVCLRSSDCASGLCCARHFWSKICKPVLKEGQVCTKHRRKGSHGLEIFQRCYCGEGLSCRIQKDHHQASNSSRLHTCQRH
# Assays:
# Wnt/β-catenin signaling = Wnt/β-catenin signaling activity (TCF/Lef:H2B-GFP reporter) in SVF precursors under pro-adipogenic conditions; assay type: cell-based, mouse; details: DKK1 100 ng/ml, IWP-2 5 μM, LF3 10 and 20 μM
# Description: (§1) Immortalized cell lines, isolated adipose SVF cells, MEFs, and BMSCs were seeded into plates at the density of 4×10^3 cells/cm^2 (cell line and SVF) or 1.5×10^4 cells/cm2 (BMSCs) in MesenCult™ Expansion medium (Stemcell Technologies Inc., Cambridge, MA, catalog no. 05513), and treated with MesenCult™ Adipogenic Differentiation cocktail (Stemcell, catalog no. 05507) with 90% cell confluence. Cells were cultured for various days after pro-adipogenic induction prior to being harvested for following experiments. Adipogenesis was examined by lipid staining. Briefly, differentiated adipocytes were washed twice with PBS, fixed in 4% paraformaldehyde (PFA) for 15 min, and then stained with Oil Red O solution (Sigma-Aldrich, catalog no. 01391) for 20 min at ambient temperature or with 20 nM BODIPY (dipyrrometheneboron difluoride, catalog no. D3835, Thermo Fisher Scientific) in PBS for 15 min at 37° C. Subsequently, cells were washed with PBS before imaging.
# (§2) For inhibition studies, SVF cells or precursor cell lines, 3 days after pro-adipogenic induction, were treated with each of the following molecules for 4 days: DKK1 (product 5897-DK-010, R&D Systems, Minneapolis, MN) (100 ng/ml), IWP-2 (catalog no. 72122, Stemcell), (5 μM), LF3 (catalog no. 58474, Selleck Chemicals) (10 and 20 μM, or 50 μM on cell lines), and LY294002 (catalog no. S1105, Selleck Chemicals) (2 and 14 μM), along with vehicles (PBS or DMSO).
# Wnt^+ adipocytes in iWAT = experiment: β3-adrenoceptor agonist treatment of T/L-GFP mice, beiging in iWAT; assay type: in vivo, mouse; details: 1 mg/kg i.p. daily for 4 days
# Description: (§3) For cold-exposure experiments, mice were singly caged and exposed to cold temperature at 6° C. for 2, 4, or 14 consecutive days. For β3-adrenoceptor agonist treatment, adult male mice were injected intraperitoneally with CL316,243 (CAS No. 138908-40-4, product C5976, Sigma-Aldrich Inc., St. Louis, MO) at 1 mg/kg body weight daily for 4 consecutive days prior to sample collection. Age-matched male littermates were treated intraperitoneally with saline as vehicle controls. […]
# (§4) Adipose tissue was fixed in 4% PFA at 4° C. overnight, followed by dehydration through serial ethanol. […] After washing, sections were processed with a Vector TrueVIEW™ Autofluorescence Quenching Kit treatment (Vector Laboratories, Inc, Burlingame, CA, SP-8400) for 5 min to remove unspecific fluorescence on sections due to red blood cells and structural elements such as collagen and elastin. […] Images of tissue samples were captured using a Nikon confocal Microscope A1 HD25 (Nikon Instruments Inc., Melville, NY) and analyzed using ImageJ software (Version 1.51S). For quantification of Wnt^+ adipocytes, we randomly chose 12-18 images from each tissue of one mouse. Microscopic pictures (10× objective) were taken, and the total cell number and the number of GFP^+ adipocytes within each image were counted.
# [1] = tested on: Wnt^+ adipocytes in iWAT of T/L-DTA mice; experiment: Tamoxifen-induced ablation of Wnt+ adipocytes in T/L-DTA mice; assay type: in vivo, mouse; details: 150 mg/kg i.p., 2 days
# Description: To ablate Wnt^+ adipocytes in vivo, Fabp4-Flex-DTA mice were crossed with Tcf/Lef-CreERT2 mice to generate Tcf/Lef-CreERT2;Fabp4-Flex-DTA mice (“T/L-DTA” mice), which received 2-day tamoxifen administration via intraperitoneal injection at the dose of 150 mg/kg body weight. […] Forty-eight hours later, T/L-DTA mice and tamoxifen-treated littermate controls (Fabp4-Flex-DTA mice) were housed at 6° C. for 2 days, respectively.
# [2] = tested on: Wnt^+ adipocytes in iWAT and iBAT; experiment: mTOR antagonist treatment of T/L-GFP mice, quantification of Wnt+ adipocytes; assay type: in vivo, mouse; details: T/L-GFP adult mice, 600 μg/kg i.p. daily for 5 days, vs vehicle
# Description: as §3, §4
# [3] = tested on: Wnt^+ adipocytes induced from GFPpos-1 and GFPpos-2 cell lines; experiment: Treatment of induced Wnt+ adipocytes from GFPpos-1 and GFPpos-2 cell lines (GFP signal, cell death); assay type: cell-based, mouse
# From the text: (§5) SVFs of iBAT from adult TCF/Lef:H2B-GFP male mice were separated and collected as described above. Cells at passage 1 were transduced with pUltra-hot-LT LV particles. Two days after transduction, cells were purified by performing FACS to remove mCherry- and Lin+ cells Immortalized cells were subjected to clonal selection through serial limited dilutions. The expression of GFP in cell colonies under pro-adipogenic induction was used as a readout for the accurate establishment of Wnt+ (>95%) and Wnt− (Wnt+=0%) adipocyte cell lines, respectively.
# as §1, §2
# iBAT-derived SVF cells = experiment: Adipogenic maturation of SVF-derived adipocytes (Oil Red O staining); assay type: cell-based, mouse; details: LF3, dose-dependent
# Description: as §1, with “imaging. […]” for “imaging.”
# [4] = tested on: Wnt^− adipocytes induced from GFPneg precursor cell lines; experiment: Treatment of induced Wnt− adipocytes from GFPneg precursor cell lines (viability, maturation); assay type: cell-based, mouse
# From the text: as §5, §1, §2
# [5] = tested on: uninduced Wnt^+ and Wnt^− precursor cell lines; experiment: Treatment of uninduced Wnt+ and Wnt− precursor cell lines; assay type: cell-based, mouse; details: same dose of LF3
# From the text: as §5
# […] S1105, Selleck Chemicals) (2 and 14 μM), along with vehicles (PBS or DMSO).
molecule,measurement,setting,value
"Cc1ccc2nc(NC(=O)CSc3nc4c(c(=O)n3-c3ccccc3)SCC4)sc2c1 [1WP-2, IWP-2]",inhibition of Wnt/β-catenin signaling activity,Wnt/β-catenin signaling,failed to
"C[C@H](Cc1ccc2c(c1)OC(C(=O)[O-])(C(=O)[O-])O2)NC[C@H](O)c1cccc(Cl)c1.[Na+].[Na+] [CL316,243]",proportion of Wnt+ adipocytes in iWAT,Wnt^+ adipocytes in iWAT,unaltered
CC/C(=C(\c1ccccc1)c1ccc(OCCN(C)C)cc1)c1ccccc1 [tamoxifen],ablation of Wnt+ adipocytes in iWAT,[1],about 87%
"CO[C@H]1C[C@@H]2CC[C@@H](C)[C@@](O)(O2)C(=O)C(=O)N2CCCC[C@H]2C(=O)O[C@H]([C@H](C)C[C@@H]2CC[C@@H](OC(=O)C(C)(CO)CO)[C@H](OC)C2)CC(=O)[C@H](C)/C=C(\C)[C@@H](O)[C@@H](OC)C(=O)[C@H](C)C[C@H](C)/C=C/C=C/C=C/1C [temsirolimus, Temsirolimus]",Wnt+ adipocyte numbers in iBAT,[2],dramatically reduced Wnt^+ adipocyte numbers
same,Wnt+ adipocyte numbers in iWAT,[2],dramatically reduced Wnt^+ adipocyte numbers
LF3,GFP expression in induced Wnt+ adipocytes,"[3]; 50 μM LF3, first day",quenched GFP expression; also recorded: GFP signals are significantly quenched
same,cell number of induced Wnt+ adipocytes,"[3]; 50 μM LF3, one day",obviously reduced cell numbers
same,cell death of induced Wnt+ adipocytes,"[3]; 50 μM LF3, second day",massive cell death; also recorded: Remarkable cell death
same,adipogenic maturation of SVF-derived adipocytes,iBAT-derived SVF cells,impaired/delayed adipogenic maturation
same,cell viability of induced Wnt− adipocytes,[4]; LF3,did not affect cell viability
same,maturation of Wnt− adipocytes,[4]; LF3,slowed down the maturation
same,adipogenic capacity of LF3-treated Wnt− adipocytes after return to normal pro-adipogenic medium,"[4]; LF3, rescue experiment",resumed full adipogenic capacity
same,impact on uninduced precursor cell lines,[5],showed no impacts
same,inhibition of Wnt/β-catenin signaling activity,Wnt/β-catenin signaling,did inhibit
B1,inhibition of Wnt/β-catenin signaling activity,Wnt/β-catenin signaling,failed to
